Usually IC50 stands for the concentration that inhibits the measured activity by half.

Drawing on patent publication US12661352B2, “Combination therapy with CLK/DYRK inhibitors and BCL2 inhibitors to treat leukemia” (Memorial Sloan-Kettering Cancer Center, priority 2023, dated 2026), this text covers IC50 for one compound.

The subject of one assay is MOLM-13 parental cells. The assay can be described thus: Drug treatment IC50 / cell viability (CellTiter Glo) and synergy, MOLM-13 parental cells. Conditions: Homo sapiens. In kind it is cell-based. The protocol:
(§1) Cell lines were plated in 96 well plates and exposed to the indicated compounds at various concentration ranges with a minimum of three technical replicates per concentration per cell line. Cell viability was measured with the CellTiter Glo reagent (Promega) as per manufacturer's instructions. Absolute viability values were converted to percentage viability versus DMSO control treatment, and then non-linear fit of log (inhibitor) versus response (three parameters) was performed in GraphPad Prism v7.0 to obtain an IC50 values. Two-dimensional heatmaps of Synergy Scores from Bliss synergy models were generated based on Demidenko et al., 2019^83.
A general note: In ATP-based viability assays light output follows the ATP content of the culture.

In assay [1] the test system is venetoclax-resistant MOLM-13 cell lines. Briefly: Drug treatment IC50 / cell viability (CellTiter Glo) and synergy, venetoclax-resistant MOLM-13 cell lines. In kind it is cell-based. Particulars: Homo sapiens, cell lines developed by continuous exposure to venetoclax for 3 weeks. The protocol:
as §1
The efficacy of SM09419 across a spectrum of human AML cell lines was tested. […] Three independent venetoclax-resistant MOLM-13 cell lines following continuous exposure to venetoclax for 3 weeks were developed. […] These findings were further extended to patient-derived xenograft (PDX) models of AML from patients with de novo resistance to venetoclax combination regimens (5-azacytidine or low-dose cytarabine) (FIGS. 6C-6D). Following xenotransplantation from two individual venetoclax-resistant patients into NSGS mice, disease engraftment with >10% human hCD45^+ hCD34^+ hCD38^+ cells was detected and mice were exposed to SM09419 (25 mg/kg) or vehicle administered orally and daily for 3 weeks.

Regarding `CC1(C)CCC(CN2CCN(c3ccc(C(=O)NS(=O)(=O)c4ccc(NCC5CCOCC5)c([N+](=O)[O-])c4)c(Oc4cnc5[nH]ccc5c4)c3)CC2)=C(c2ccc(Cl)cc2)C1` [venetoclax], the values for the IC50 (with MOLM-13 parental cells; in assay [1]) were approximately 15 nM and more than 99 nM, respectively.
